Several values for one entry are separate records, joined by “and”; a condition that tells them apart may be missing. Equal entries are not always repeated.
Assays:
[1] = molecular target: Muscarinic acetylcholine receptor
Description: Inhibition of [3H]QNB binding against muscarinic acetylcholine receptor in rat brain.

[2] = molecular target: T1, Muscarinic acetylcholine receptor M3 (Rattus norvegicus, UniProt P08483); assay: Binding activity against rat muscarinic acetylcholine receptor M3 using [3H]QNB as the radioligand
[3] = molecular target: Muscarinic acetylcholine receptor; assay: Inhibition of [3H]QNB binding against muscarinic acetylcholine receptor in guinea pig ileum; type: tissue-based, Cavia porcellus
[4] = molecular target: T2, Muscarinic acetylcholine receptor M1 (Rattus norvegicus, UniProt P08482); assay: Binding activity against rat muscarinic acetylcholine receptor M1 using [3H]QNB as the radioligand
T2 sequence (P08482 whole entry): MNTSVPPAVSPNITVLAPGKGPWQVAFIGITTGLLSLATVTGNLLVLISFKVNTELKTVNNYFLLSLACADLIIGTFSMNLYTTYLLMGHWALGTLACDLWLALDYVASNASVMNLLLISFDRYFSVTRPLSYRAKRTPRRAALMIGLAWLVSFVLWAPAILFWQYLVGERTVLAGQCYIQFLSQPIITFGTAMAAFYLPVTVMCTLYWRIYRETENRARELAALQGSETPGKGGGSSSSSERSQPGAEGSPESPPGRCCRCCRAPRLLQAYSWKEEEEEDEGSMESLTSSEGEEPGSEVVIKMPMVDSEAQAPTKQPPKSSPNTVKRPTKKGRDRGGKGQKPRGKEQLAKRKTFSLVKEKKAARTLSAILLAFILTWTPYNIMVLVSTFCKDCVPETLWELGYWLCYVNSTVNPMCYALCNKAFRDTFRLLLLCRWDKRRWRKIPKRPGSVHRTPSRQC

[5] = molecular target: Muscarinic acetylcholine receptor; assay: Inhibition of [3H]pirenzepine binding against muscarinic acetylcholine receptor in rat brain.; type: tissue-based
[6] = molecular target: Muscarinic acetylcholine receptor; assay: Inhibition of methacholine induced phasic contraction of guinea pig ileum; type: functional, tissue-based, Cavia porcellus
[7] = species on record: Cavia porcellus; assay: Inhibition against methacholine induced phasic contraction in guinea pig ileum; type: functional; details: read-out: pA2 (converted)
[8] = molecular target: Muscarinic acetylcholine receptor; assay: Inhibition of [3H]QNB binding against muscarinic acetylcholine receptor in rat heart.
[9] = molecular target: Muscarinic acetylcholine receptor; remark: listed apart in the source
Description: Inhibition of [3H]OXO-M binding against muscarinic acetylcholine receptor in rat brain membranes

[10] = species on record: Cavia porcellus; assay: The compound was tested for inhibition against tonic contraction in guinea pig ileum.; type: functional; details: read-out: pA2 (converted)
[11] = species on record: Cavia porcellus; assay: Inhibition of methacholine induced tonic contraction of guinea pig ileum; type: functional
[12] = species on record: Cavia porcellus; assay: The compound was tested for inhibition against methacholine induced tonic contraction in guinea pig ileum.; type: functional; details: read-out: pA2 (converted)
[13] = species on record: Cavia porcellus; assay: The compound was tested for inhibition against methacholine induced tonic contraction in guinea pig ileum; type: functional; details: read-out: pA2 (converted)
[14] = molecular target: Muscarinic acetylcholine receptor; assay: The compound was tested for inhibition of [3H]OXO-M binding against muscarinic acetylcholine receptor in rat brain membranes; type: cell membranes
[15] = molecular target: T1, Muscarinic acetylcholine receptor M3; assay: The compound was tested for binding activity against muscarinic acetylcholine receptor M3, using [3H]-QNB as the radioligand.
[16] = molecular target: T2, Muscarinic acetylcholine receptor M1; assay: The compound was tested for binding activity against muscarinic acetylcholine receptor M1, using [3H]QNB as the radioligand.

T1 sequence (P08483 whole entry): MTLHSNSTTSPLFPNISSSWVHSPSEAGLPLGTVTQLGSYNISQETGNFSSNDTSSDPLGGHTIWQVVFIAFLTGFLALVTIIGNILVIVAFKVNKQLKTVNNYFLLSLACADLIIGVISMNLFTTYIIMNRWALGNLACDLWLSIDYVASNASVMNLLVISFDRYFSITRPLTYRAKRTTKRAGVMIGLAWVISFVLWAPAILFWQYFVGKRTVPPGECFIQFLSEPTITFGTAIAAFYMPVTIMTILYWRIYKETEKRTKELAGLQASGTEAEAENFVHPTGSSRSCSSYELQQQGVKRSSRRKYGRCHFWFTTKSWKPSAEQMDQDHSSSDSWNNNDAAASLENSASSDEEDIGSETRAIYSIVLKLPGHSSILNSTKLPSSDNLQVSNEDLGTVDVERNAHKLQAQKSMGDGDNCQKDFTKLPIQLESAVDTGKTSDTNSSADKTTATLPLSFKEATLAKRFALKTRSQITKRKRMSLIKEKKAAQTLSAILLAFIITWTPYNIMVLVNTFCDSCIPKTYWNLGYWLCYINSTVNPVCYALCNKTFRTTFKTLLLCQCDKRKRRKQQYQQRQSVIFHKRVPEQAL

| Structure (SMILES) | Ki [1] [nM] | Ki [2] [nM] | Ki [3] [nM] | Ki [4] [nM] | Ki [5] [nM] | -Log Kd [6] | Kb [7] [nM] | Ki [8] [nM] | Ki [9] [nM] | Kb [10] [nM] | -Log Kd [11] | Kb [12] [nM] | Kb [13] [nM] | Ki [14] [nM] | Ki [15] [nM] | Ki [16] [nM] |
| --- | --- | --- | --- | --- | --- | --- | --- | --- | --- | --- | --- | --- | --- | --- | --- | --- |
| CN1CC2CC1C[C@@H](OC(=O)C(C)(c1ccccc1)c1ccccc1)C2 (single isomer, unassigned; (-)) | 6.36 | 10.7 | 14.5 | 7.89 |  |  |  |  |  |  |  |  |  |  |  |  |
| CN1CC2CC1C[C@@H](OC(=O)C(C)(c1ccccc1)c1ccccc1)C2 (stereo in doubt; 1) | 0.13 | 0.472 | 0.279 | 0.0881 | 0.118 | 10.46 | 0.0741 | 0.196 |  |  |  |  |  |  |  |  |
| CC(=O)O[C@@H]1C[C@@H]2C[C@H](C1)N([C@H](C)c1ccccc1)C2 (stereo in doubt; 13) | 4710 | 4280 | 3750 | 9180 |  |  |  |  | 4150 |  |  |  |  |  |  |  |
| CC(=O)O[C@H]1CC2CC(C1)N(C)C2 (single isomer, unassigned; (-)) | 3730 | 4970 | 4190 | 7210 |  |  |  |  | 6550 |  |  |  |  |  |  |  |
| CC(=O)O[C@@H]1CC2CC(C1)N(C)C2 (single isomer, unassigned; (-)) | 23000 | 46700 | 38100 | 22100 |  |  |  |  | 33900 |  |  |  |  |  |  |  |
| CC(=O)O[C@H]1CC2CC(C1)N(C(C)c1ccccc1)C2 (some centres not stated) | 3530 | 3380 | 4570 | 2770 |  |  |  |  | 113 |  |  |  |  |  |  |  |
| CC(C(=O)O[C@H]1CC2CC(C1)N(Cc1ccccc1)C2)(c1ccccc1)c1ccccc1 (some centres not stated) | 9.53 | 12.5 | 12.8 | 10.9 | 27.9 | 8.04 | 6.17 | 9.28 |  | 5.62 | 8.03 | 5.62 |  |  |  |  |
| CC(=O)O[C@H]1CC2CC(C1)N(C)C2 (stereo in doubt; 8) | 7530 | 8990 | 8400 | 9200 | 9810 |  |  |  | 1150 |  |  |  |  |  |  |  |
| CC(=O)O[C@@H]1CC2CC(C1)N(C)C2 (single isomer, unassigned; (+)) | 6470 | 11300 | 10400 | 7110 |  |  |  |  | 10400 |  |  |  |  |  |  |  |
| CN1CC2CC1C[C@H](OC(=O)C(C)(c1ccccc1)c1ccccc1)C2 (some centres not stated) | 4.2 | 9.28 | 9.64 | 2.94 | 12.7 | 8.44 | 1.86 | 12.9 |  |  | 8.75 |  | 1.91 |  |  |  |
| CC(=O)O[C@H]1CC2CC(C1)N(C)C2 (single isomer, unassigned; (+)) | 8560 | 19700 | 21000 | 13900 |  |  |  |  |  |  |  |  |  | 2170 |  |  |
| CC(=O)O[C@@H]1CC2CC(C1)N(C)C2 (stereo in doubt; 9) | 8550 | 14100 | 11900 | 8620 | 12500 |  |  |  | 7820 |  |  |  |  |  |  |  |
| CC(=O)O[C@@H]1C[C@@H]2C[C@H](C1)N([C@H](C)c1ccccc1)C2 (stereo in doubt; 12) | 19100 | 29900 | 12900 | 23100 |  |  |  |  | 23300 |  |  |  |  |  |  |  |
| CN1CC2CC1C[C@@H](OC(=O)C(C)(c1ccccc1)c1ccccc1)C2 (single isomer, unassigned; (+)) | 0.0297 |  | 0.054 |  |  |  |  |  |  |  |  |  |  |  | 0.0986 | 0.0383 |
| CN1CC2CC1C[C@H](OC(=O)C(c1ccccc1)c1ccccc1)C2 (some centres not stated) | 4.07 | 11.2 | 19.1 | 4.75 | 5.73 | 8.27 and 8.32 | 1.55 | 16.9 |  |  |  |  | 1.82 |  |  |  |
| CN1CC2CC1C[C@@H](OC(=O)C(c1ccccc1)c1ccccc1)C2 (some centres not stated) | 1.89 | 4.3 | 8.21 | 1.23 | 2.87 | 8.45 | 1.74 | 5.49 |  |  |  |  | 1.86 |  |  |  |
| CC(=O)O[C@H]1CC2CC(C1)N([C@H](C)c1ccccc1)C2 (some centres not stated) | 10100 | 14900 | 7700 | 12800 |  |  |  |  | 1950 |  |  |  |  |  |  |  |

— ChEMBL document CHEMBL1125891, “Synthesis, molecular modeling studies, and muscarinic receptor activity of azaprophen analogues” (J Med Chem, 1991)
